One experiment addresses T1, PDE1C (Homo sapiens, UniProt Q14123).
T1 construct: made in house; host or cells: SF9 insect cells (crude lysate used as enzyme source)
Description: PDE enzymatic activity assay (SPA), PDE1C, cAMP as substrate. The format is biochemical. Particulars: ratio IC50 PDE1C / IC50 PDE9A; for illustrative purposes. Here is the method: (§1) The PDE enzymatic activity assays were run as SPA, in general according to the protocol of the manufacturer (Amersham Biosciences, product number: TRKQ 7100). As enzyme source, lysate (PBS with 1% Triton X-100 supplemented with protease inhibitors, cell debris removed by centrifugation at 13.000 rpm for 30 min) of SF 9 cell expressing the human PDE of interest was used. The total protein amount included in the assay varied upon infection and production efficacy of the SF9 cells and lay in the range of […].
(§2) In general, the assay conditions were as follows: • total assay volume: 40 μl • protein amount: 0.1-50 ng • substrate concentration (cGMP or cAMP): 20 nM; ˜1 mCi/l • incubation time: 60 min at room temperature • final DMSO concentration: 1%
(§3) The assays were run in 384-well format. The test reagents as well as the enzyme and the substrate were diluted in assay buffer. The assay buffer contained 50 mM Tris, 8.3 mM MgCl2, 1.7 mM EGTA, 0.1% BSA, 0.05% Tween 20; the pH of assay buffer was adjusted to 7.5. In case activity of PDE1C was analysed, 50 nM Calmodulin and 3 mM CaCl2 were included in the assay buffer. In case PDE9 activity was analyzed, the reaction was stopped by applying a PDE9 specific inhibitor (e.g. compounds according to WO2004/099210). PDE1C was analysed with cAMP as substrate, and PDE9 was analyzed with cGMP as substrate.
(§4) IC50 can be calculated in a conventional way, eventually with the help of GraphPadPrism or other suited software setting the positive control as 100 and the negative control as 0. For calculation of IC50 usually 8 dilutions of the test compound ([…]) are to be selected and tested following the aforementioned protocol.

The next experiment deals with PDE9A (Homo sapiens, UniProt O76083). Description: PDE enzymatic activity assay (SPA), PDE9A. The format is biochemical. Also on record: made in house; host or cells: SF9 insect cells (crude lysate used as enzyme source). Conditions: cGMP substrate, for illustrative purposes; for inhibition at 10 µM: 10 micromolar; for IC50: given as ranges. On the procedure:
as §1, §2, §3
Calculation of % Inhibition:
The activity of the positive control (minus the negative control=background) is set to 100% and activity in the presence of test compound is expressed relative to these 100%.
Within this setting, an inhibition above 100% might be possible due to the nature of the variation of the positive control within the assay, however, in this case the reported % inhibition had been adjusted to 100%.
as §4

The text below walks through data of patent US8648085B2, “1, 5-dihydro-pyrazolo (3, 4-D) pyrimidin-4-one derivatives and their use as PDE9A mudulators for the treatment of CNS disorders” (Boehringer Ingelheim International GmbH, priority 2007, dated 2014).

Chain of PDE9A (O76083 whole entry): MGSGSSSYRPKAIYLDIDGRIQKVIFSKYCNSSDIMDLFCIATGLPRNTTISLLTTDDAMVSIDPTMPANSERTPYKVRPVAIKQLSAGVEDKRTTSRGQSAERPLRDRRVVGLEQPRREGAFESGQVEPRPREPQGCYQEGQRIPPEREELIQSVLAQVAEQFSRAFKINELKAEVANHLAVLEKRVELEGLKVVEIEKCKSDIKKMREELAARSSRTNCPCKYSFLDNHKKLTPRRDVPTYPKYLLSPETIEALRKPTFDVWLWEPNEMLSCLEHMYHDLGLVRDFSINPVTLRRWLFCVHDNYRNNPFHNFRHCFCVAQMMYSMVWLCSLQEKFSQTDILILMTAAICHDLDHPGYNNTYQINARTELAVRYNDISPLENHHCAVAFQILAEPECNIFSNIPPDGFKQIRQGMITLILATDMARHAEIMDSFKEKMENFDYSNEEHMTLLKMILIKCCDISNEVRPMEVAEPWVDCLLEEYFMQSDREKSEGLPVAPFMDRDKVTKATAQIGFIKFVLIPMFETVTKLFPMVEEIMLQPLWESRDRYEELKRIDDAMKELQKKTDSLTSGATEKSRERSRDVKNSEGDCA

As for `Cc1ccncc1-n1ncc2c(=O)[nH]c(Cc3ccccc3OC(F)(F)F)nc21` [Example 1, 1-(4-Methyl-pyridin-3-yl)-6-(2-tri-fluoromethoxy-benzyl)-1,5-dihydro-pyrazolo[3,4-d]pyrimidin-4-one], on PDE1C, the “Selectivity = IC50 PDE 1C/IC50 PDE9A (both nanomolar)” value (“Selectivity = IC50 PDE 1C/IC50 PDE9A” below) is recorded as 39. At PDE9A, the inhibition at 10 µM is 99% and the IC50 lay within 10 to 500 nM.
The corresponding values for `Cc1ccccc1-n1ncc2c(=O)[nH]c(Cc3ccccc3OC(F)(F)F)nc21` [Example 2, 1-o-Tolyl-6-(2-trifluoromethoxy-benzyl)-1,5-dihydro-pyrazolo[3,4-d] pyrimidin-4-one] are 14, 98% and 10 to 500 nM.
As for `Cc1ccc(Cl)c(-n2ncc3c(=O)[nH]c(Cc4ccccc4OC(F)(F)F)nc32)c1` [Example 3, 1-(2-Chloro-5-methyl-phenyl)-6-(2-trifluoromethoxy-benzyl)-1,5-dihydro-pyrazolo[3,4-d]pyrimidin-4-one], the “Selectivity = IC50 PDE 1C/IC50 PDE9A” value on PDE1C is 4. Moreover, on PDE9A, the inhibition at 10 µM was found to be 95% and the 50% inhibitory concentration (IC50) lay within 10 to 500 nM.
For `COc1ccc(Cl)cc1-n1ncc2c(=O)[nH]c(Cc3ccccc3OC(F)(F)F)nc21` [Example 4, 1-(5-Chloro-2-methoxy-phenyl)-6-(2-trifluoromethoxy-benzyl)-1,5-dihydro-pyrazolo[3,4-d]pyrimidin-4-one], the “Selectivity = IC50 PDE 1C/IC50 PDE9A” value on PDE1C worked out at 88. Besides, on PDE9A, the inhibition at 10 µM was 102% and the IC50 was in the range of 10 to 500 nM.
In the same order, the values of `O=c1[nH]c(Cc2ccccc2OC(F)(F)F)nc2c1cnn2-c1cc(F)ccc1Cl` [Example 5, 1-(2-Chloro-5-fluoro-phenyl)-6-(2-trifluoromethoxy-benzyl)-1,5-dihydro-pyrazolo[3,4-d]pyrimidin-4-one] are 7, 96% and 10 to 500 nM.
For the compound `O=c1[nH]c(Cc2ccccc2OC(F)(F)F)nc2c1cnn2-c1cc(Br)ccc1Cl` [Example 6, 1-(5-Bromo-2-chloro-phenyl)-6-(2-trifluoromethoxy-benzyl)-1,5-dihydro-pyrazolo[3,4-d]pyrimidin-4-one], the “Selectivity = IC50 PDE 1C/IC50 PDE9A” value at PDE1C amounted to 112. At PDE9A, the inhibition at 10 µM came out at 88% and the IC50 was in the range of 10 to 500 nM.
As for `O=c1[nH]c(Cc2ccccc2OC(F)(F)F)nc2c1cnn2-c1cc(F)ccc1Br` [Example 7, 1-(2-Bromo-5-fluoro-phenyl)-6-(2-trifluoromethoxy-benzyl)-1,5-dihydro-pyrazolo[3,4-d]pyrimidin-4-one], on PDE1C, the “Selectivity = IC50 PDE 1C/IC50 PDE9A” value was 9. Besides, on PDE9A, the inhibition at 10 µM was found to be 91% and the IC50 fell in the range of 10 to 500 nM.
Turning to `O=c1[nH]c(Cc2ccccc2OC(F)(F)F)nc2c1cnn2-c1cc(Cl)ccc1Br` [Example 8, 1-(2-Bromo-5-chloro-phenyl)-6-(2-trifluoromethoxy-benzyl)-1,5-dihydro-pyrazolo[3,4-d]pyrimidin-4-one], the “Selectivity = IC50 PDE 1C/IC50 PDE9A” value on PDE1C is 21. For the same compound, on PDE9A, the inhibition at 10 µM was determined as 93% and the concentration for half-maximal inhibition (IC50) is 10 to 500 nM.
Take `O=c1[nH]c(Cc2ccccc2OC(F)(F)F)nc2c1cnn2-c1ccc(F)cc1Br` [Example 9, 1-(2-Bromo-4-fluoro-phenyl)-6-(2-trifluoromethoxy-benzyl)-1,5-dihydro-pyrazolo[3,4-d]pyrimidin-4-one]: the “Selectivity = IC50 PDE 1C/IC50 PDE9A” value on PDE1C amounted to 6. Also, on PDE9A, the inhibition at 10 µM was determined as 90% and the IC50 lay within 10 to 500 nM.
On to `Cc1ccc(Br)c(-n2ncc3c(=O)[nH]c(Cc4ccccc4OC(F)(F)F)nc32)c1` [Example 10, 1-(2-Bromo-5-methyl-phenyl)-6-(2-trifluoromethoxy-benzyl)-1,5-dihydro-pyrazolo[3,4-d]pyrimidin-4-one], for which the “Selectivity = IC50 PDE 1C/IC50 PDE9A” value on PDE1C is reported as 7. For the same compound, on PDE9A, the inhibition at 10 µM is 88% and the 50% inhibitory concentration (IC50) was over 500 nM.
Regarding `O=c1[nH]c(Cc2ccccc2OC(F)(F)F)nc2c1cnn2-c1ccc(F)cc1` [Example 11, 1-(4-Fluoro-phenyl)-6-(2-trifluoromethoxy-benzyl)-1,5-dihydro-pyrazolo[3,4-d]pyrimidin-4-one], at PDE1C, the “Selectivity = IC50 PDE 1C/IC50 PDE9A” value turned out to be 21. Moreover, at PDE9A, the inhibition at 10 µM amounted to 47% and the IC50 is over 500 nM.
In the same order, the values of `O=c1[nH]c(Cc2ccccc2OC(F)(F)F)nc2c1cnn2-c1ccc(F)cc1F` [Example 12, 1-(2,4-Difluoro-phenyl)-6-(2-trifluoromethoxy-benzyl)-1,5-dihydro-pyrazolo[3,4-d]pyrimidin-4-one] are 8, 102% and 10 to 500 nM.
As to `O=c1[nH]c(Cc2ccccc2OC(F)(F)F)nc2c1cnn2-c1ccc(F)cc1Cl` [Example 13, 1-(2-Chloro-4-fluoro-phenyl)-6-(2-trifluoromethoxy-benzyl)-1,5-dihydro-pyrazolo[3,4-d]pyrimidin-4-one], the “Selectivity = IC50 PDE 1C/IC50 PDE9A” value on PDE1C is listed as 10. Besides, on PDE9A, the inhibition at 10 µM was 96% and the IC50 was in the range of 10 to 500 nM.
As for `Cc1ccc(F)cc1-n1ncc2c(=O)[nH]c(Cc3ccccc3OC(F)(F)F)nc21` [Example 14, 1-(5-Fluoro-2-methyl-phenyl)-6-(2-trifluoromethoxy-benzyl)-1,5-dihydro-pyrazolo[3,4-d]pyrimidin-4-one], the “Selectivity = IC50 PDE 1C/IC50 PDE9A” value at PDE1C is reported as 14. In addition, at PDE9A, the inhibition at 10 µM stood at 95% and the IC50 is 10 to 500 nM.
Turning to `Cc1ccc(Cl)cc1-n1ncc2c(=O)[nH]c(Cc3ccccc3OC(F)(F)F)nc21` [Example 15, 1-(5-Chloro-2-methyl-phenyl)-6-(2-trifluoromethoxy-benzyl)-1,5-dihydro-pyrazolo[3,4-d]pyrimidin-4-one], the “Selectivity = IC50 PDE 1C/IC50 PDE9A” value at PDE1C was found to be 271. Also, at PDE9A, the inhibition at 10 µM worked out at 94% and the 50% inhibitory concentration (IC50) lay within 10 to 500 nM.
As to `O=c1[nH]c(Cc2ccccc2OC(F)(F)F)nc2c1cnn2-c1cc(Cl)ccc1Cl` [Example 16, 1-(2,5-Dichloro-phenyl)-6-(2-trifluoromethoxy-benzyl)-1,5-dihydro-pyrazolo[3,4-d]pyrimidin-4-one], the “Selectivity = IC50 PDE 1C/IC50 PDE9A” value at PDE1C is given as 71. At PDE9A, the inhibition at 10 µM turned out to be 93% and the half-maximal inhibitory concentration (IC50) is 10 to 500 nM.
Take `Cc1cc(F)ccc1-n1ncc2c(=O)[nH]c(Cc3ccccc3OC(F)(F)F)nc21` [Example 17, 1-(4-Fluoro-2-methyl-phenyl)-6-(2-trifluoromethoxy-benzyl)-1,5-dihydro-pyrazolo[3,4-d]pyrimidin-4-one]: the “Selectivity = IC50 PDE 1C/IC50 PDE9A” value on PDE1C was 9. Also, on PDE9A, the inhibition at 10 µM worked out at 98% and the half-maximal inhibitory concentration (IC50) was in the range of 10 to 500 nM.
For `Cc1ccc(C)c(-n2ncc3c(=O)[nH]c(Cc4ccccc4OC(F)(F)F)nc32)c1` [Example 18, 1-(2,5-Dimethyl-phenyl)-6-(2-trifluoromethoxy-benzyl)-1,5-ihydro-pyrazolo[3,4-d]pyrimidin-4-one], the “Selectivity = IC50 PDE 1C/IC50 PDE9A” value on PDE1C is on record as 28. Moreover, at PDE9A, the inhibition at 10 µM came out at 86% and the half-maximal inhibitory concentration (IC50) fell in the range of 10 to 500 nM.
For `Cc1cccc(-n2ncc3c(=O)[nH]c(Cc4ccccc4OC(F)(F)F)nc32)c1C` [Example 19, 1-(2,3-Dimethyl-phenyl)-6-(2-trifluoromethoxy-benzyl)-1,5-dihydro-pyrazolo[3,4-d] pyrimidin-4-one], the “Selectivity = IC50 PDE 1C/IC50 PDE9A” value at PDE1C is given as 5. Also, at PDE9A, the inhibition at 10 µM was determined as 74% and the half-inhibitory concentration (IC50) was 10 to 500 nM.
For the compound `CCOc1ccc(Cl)c(-n2ncc3c(=O)[nH]c(Cc4ccccc4OC(F)(F)F)nc32)c1` [Example 20, 1-(2-Chloro-5-ethoxy-phenyl)-6-(2-trifluoromethoxy-benzyl)-1,5-dihydro-pyrazolo[3,4-d]pyrimidin-4-one], the “Selectivity = IC50 PDE 1C/IC50 PDE9A” value on PDE1C came to 4. For the same compound, on PDE9A, the inhibition at 10 µM turned out to be 87% and the IC50 was 10 to 500 nM.
As to `Cc1cc(F)c(F)cc1-n1ncc2c(=O)[nH]c(Cc3ccccc3OC(F)(F)F)nc21` [Example 21, 1-(4,5-Difluoro-2-methyl-phenyl)-6-(2-trifluoromethoxy-benzyl)-1,5-dihydro-pyrazolo[3,4-d]pyrimidin-4-one], at PDE1C, the “Selectivity = IC50 PDE 1C/IC50 PDE9A” value was 93. Also, on PDE9A, the inhibition at 10 µM worked out at 91% and the IC50 lay within 10 to 500 nM.
